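In this assay, cells in 96-well plates receive the compound at five concentrations for 48 hours. Endpoints are linearly interpolated between the surrounding concentrations. GI50 is the concentration that inhibits growth by half.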 Active and inactive are the calls of the source. Rule as the data show it: active = GI50 up to about 1.1 µM and inactive = higher.
What was measured:
Test in all cases: growth of human tumour cells (NCI), 48 h
[1] = tested on: DMS-114
[2] = tested on: LXFL 529
[3] = tested on: M19-MEL
[4] = tested on: RXF 631
[5] = tested on: SNB-78
[6] = tested on: BT-549
[7] = tested on: MDA-MB-231
[8] = tested on: MDA-N
[9] = tested on: T47D

Compound | GI50 [1] | GI50 [2] | GI50 [3] | GI50 [4] | GI50 [5] | GI50 [6] | GI50 [7] | GI50 [8] | GI50 [9]
C=CCNC1=NC(=O)C(CC(=O)Nc2cccc(Cl)c2)S1 (stereo not given) | > 100 µM (inactive) | > 100 µM (inactive) | > 100 µM (inactive) | > 100 µM (inactive) | – | – | – | – | –
COC1CCC(OS(C)(=O)=O)CO1 (stereo not given) | > 100 µM (inactive) | > 100 µM (inactive) | > 100 µM (inactive) | – | > 100 µM (inactive) | – | – | – | –
[O-][n+]1ccccc1S [PYRITHIONE ZINC] | 0.419 µM (active) | 0.327 µM (active) | 0.562 µM (active) | 0.968 µM (active) | 3.94 µM (inactive) | – | – | – | –
O=NN(CCF)C(=O)NC1CCSCC1 | > 100 µM (inactive) | – | > 100 µM (inactive) | – | > 100 µM (inactive) | – | – | – | –
CC1Cc2c(N)nc(N3CCOCC3)nc2NC1=O (stereo not given) | > 100 µM (inactive) | – | > 100 µM (inactive) | – | – | – | – | – | –
CC1C=CC(=O)C(n2cc(F)c(=O)[nH]c2=O)O1 (stereo not given) | 15.9 µM (inactive) | – | 18.5 µM (inactive) | 19.7 µM (inactive) | 28.2 µM (inactive) | – | – | – | –
COC1=CC(=O)c2ccccc2C1(CCC=C(C)C)C1=NC(C)(C)CO1 (stereo not given) | – | 50.7 µM (inactive) | 48.2 µM (inactive) | – | – | – | – | – | –
Cc1ccc2c(c1)C1(OC(=O)c3ccccc31)c1ccc(F)cc1O2 (stereo not given) | 34.6 µM (inactive) | 56.5 µM (inactive) | 57 µM (inactive) | 83.9 µM (inactive) | – | – | – | – | –
CCCCCCC/C=C1\CCC(CN(C)C)C1=O (stereo not given) | – | 7.78 µM (inactive) | – | 10.9 µM (inactive) | 16.4 µM (inactive) | 14.7 µM (inactive) | 3.2 µM (inactive) | 13.2 µM (inactive) | 2.98 µM (inactive)
Cc1ccc(S(=O)(=O)NC(=O)Nc2nc(Cl)cc(Cl)n2)cc1 | 96.4 µM (inactive) | > 100 µM (inactive) | > 100 µM (inactive) | > 100 µM (inactive) | > 100 µM (inactive) | – | – | – | –
COc1nc(O)c(N)c(NC2OC(CO)C(O)C(O)C2O)n1 (stereo not given) | > 100 µM (inactive) | – | > 100 µM (inactive) | – | > 100 µM (inactive) | – | – | – | –
CN1C(=O)NC2(O)c3ccccc3C(=O)C12O (stereo not given) | > 100 µM (inactive) | > 100 µM (inactive) | > 100 µM (inactive) | – | > 100 µM (inactive) | – | – | – | –
CCOC(=O)C1=C(Nc2ccccc2)OC/C1=N\NC(=O)Cc1ccccc1 | > 50 µM (inactive) | > 50 µM (inactive) | > 50 µM (inactive) | > 50 µM (inactive) | > 50 µM (inactive) | – | – | – | –
COc1cc(/C=C/C(=O)Oc2ccc(NC(C)=O)cc2)ccc1C(=O)OCc1ccccc1 | > 90.8 µM (inactive) | > 100 µM (inactive) | > 100 µM (inactive) | – | 32.6 µM (inactive) | > 100 µM (inactive) | > 100 µM (inactive) | > 100 µM (inactive) | > 100 µM (inactive)
O=C(O)C1Cc2c([nH]c3ccccc23)C=N1 (stereo not given) | > 100 µM (inactive) | – | > 100 µM (inactive) | – | > 100 µM (inactive) | – | – | – | –
Cc1ccc(C2=C(c3ccccc3)C(Br)(c3ccc(C)cc3)C(c3ccccc3)=C2c2ccc(C)cc2)cc1 | > 100 µM (inactive) | > 100 µM (inactive) | > 100 µM (inactive) | > 100 µM (inactive) | > 100 µM (inactive) | – | – | – | –
Cc1ccccc1NC(=O)CC(=O)N1N=C(N2c3ccccc3Sc3ccccc32)CC1c1ccccc1 (stereo not given) | > 100 µM (inactive) | > 100 µM (inactive) | > 100 µM (inactive) | > 100 µM (inactive) | > 100 µM (inactive) | – | – | – | –
COc1ccccc1C1C(C(=O)O)=C(CO)Oc2cc3c(cc21)OCO3 (stereo not given) | > 100 µM (inactive) | > 100 µM (inactive) | > 100 µM (inactive) | – | > 100 µM (inactive) | – | – | – | –
Cc1ccccc1NC(=O)C(=O)C1CN(c2ccccc2)N=C1N (stereo not given) | – | > 100 µM (inactive) | > 100 µM (inactive) | > 100 µM (inactive) | > 100 µM (inactive) | – | – | – | –
CCN(CC)CC(C)(C)C(=O)/C=C/c1ccc(C)cc1 | – | 7.31 µM (inactive) | 9.46 µM (inactive) | 9.42 µM (inactive) | 10.7 µM (inactive) | – | – | – | –

Compound | GI50 [1] | GI50 [2] | GI50 [3] | GI50 [4] | GI50 [5] | GI50 [6] | GI50 [7] | GI50 [8] | GI50 [9]
CCCCc1ccc(-n2c3nc(=O)n(C)c(=O)c-3nc3ccccc32)cc1 | 4.7 µM (inactive) | 15.6 µM (inactive) | 1.5 µM (inactive) | 11.9 µM (inactive) | 16.3 µM (inactive) | – | – | – | –
CCCCN(CCCC)C(=O)C(=O)C(C#N)c1ccc(C)cc1 (stereo not given) | > 100 µM (inactive) | > 100 µM (inactive) | > 100 µM (inactive) | – | > 100 µM (inactive) | – | – | – | –
CC1CC2=Nc3ccccc3NC(c3ccccc3)C2=C(O)O1 (stereo not given) | > 100 µM (inactive) | > 100 µM (inactive) | > 100 µM (inactive) | – | > 100 µM (inactive) | – | – | – | –
CCC(C(C)N1CC(=O)NC(=O)C1)N1CC(=O)NC(=O)C1 (stereo not given) | 7.01 µM (inactive) | – | 41.4 µM (inactive) | – | > 66.4 µM (inactive) | – | – | – | –
CC(C)(C)C1=NO[C@H]2[C@@H](NC(=O)c3ccccc3)CC[C@@H]12 | > 100 µM (inactive) | > 100 µM (inactive) | > 100 µM (inactive) | – | > 100 µM (inactive) | – | – | – | –
CCCc1c(C(=O)OCC)[nH]c(-c2ccc(-c3[nH]c(C(=O)OCC)c(CCC)c3C(=O)OCC)o2)c1C(=O)OCC | > 100 µM (inactive) | > 100 µM (inactive) | > 100 µM (inactive) | – | > 100 µM (inactive) | – | – | – | –
CCCCSCC(NC(=O)/C=C/c1c(C)[nH]c(=O)[nH]c1=O)C(=O)OC (stereo not given) | 30.1 µM (inactive) | – | 38.4 µM (inactive) | – | 47 µM (inactive) | – | – | – | –
CC1(C)CC23C4COC(=O)C2CCC1C3CC4=O (stereo not given) | – | – | 11.9 µM (inactive) | – | 15 µM (inactive) | – | – | – | –
CC(=O)OC(C)(C)C[N+](=O)[O-] | > 100 µM (inactive) | > 100 µM (inactive) | > 100 µM (inactive) | – | – | – | – | – | –
COC(=O)C1=C2CCC(=O)[C@@]2(C)C(OC(C)=O)C=CC1 (stereo not given in full) | 32.7 µM (inactive) | 36.8 µM (inactive) | > 100 µM (inactive) | 20.5 µM (inactive) | 57 µM (inactive) | – | – | – | –
Cn1nc(C(=O)N2CC(CCl)c3c2cc(N)c2ccccc32)cc1NC(=O)Nc1cc(C(=O)N2CC(CCl)c3c2cc(N)c2ccccc32)nn1C (stereo not given) | – | – | – | – | – | 0.0718 µM (active) | 0.243 µM (active) | 0.157 µM (active) | < 0.01 µM (active)
N#CNC1=NC(CCCC(=O)Nc2cccc([N+](=O)[O-])c2)=C(c2nc3ccccc3[nH]2)C(N)N1 (stereo not given) | > 100 µM (inactive) | > 100 µM (inactive) | > 100 µM (inactive) | – | – | – | – | – | –
CC(C(=O)C(C)O[Si](c1ccccc1)(c1ccccc1)C(C)(C)C)=P(c1ccccc1)(c1ccccc1)c1ccccc1 (stereo not given) | 2.39 µM (inactive) | 3.3 µM (inactive) | 3.11 µM (inactive) | – | 3.48 µM (inactive) | – | – | – | –
CCCCC1=CSC(c2ccccc2)=C(c2ccccc2)S1 | > 100 µM (inactive) | 8.28 µM (inactive) | 38.9 µM (inactive) | > 100 µM (inactive) | > 100 µM (inactive) | – | – | – | –
Cn1cnc([N+](=O)[O-])c1Sc1nc2cc([N+](=O)[O-])ccc2[nH]1 | – | 12.6 µM (inactive) | 17.4 µM (inactive) | – | 24.1 µM (inactive) | – | – | – | –
CCC1=CCN(c2cc(C)ccn2)OC1c1ccc(OC)cc1 (stereo not given) | 27.9 µM (inactive) | 28.6 µM (inactive) | 31.5 µM (inactive) | 61.2 µM (inactive) | – | – | – | – | –
Cc1cc(C(C)(C)C)cc(Cc2cc(C(C)(C)C)cc(Cc3cc(C(C)(C)C)cc(C)c3O)c2O)c1O | 4.21 µM (inactive) | 8.04 µM (inactive) | 3.77 µM (inactive) | – | 4.98 µM (inactive) | – | – | – | –
COc1ccc2c(c1)CCCc1c-2nc2ccccc2c1N | – | – | – | – | – | 16.2 µM (inactive) | 5.7 µM (inactive) | 10.3 µM (inactive) | 12.4 µM (inactive)
N=S(c1ccccc1[N+](=O)[O-])c1ccccc1[N+](=O)[O-] | – | 2.22 µM (inactive) | 2.43 µM (inactive) | – | 2.52 µM (inactive) | – | – | – | –
CCCCCCCCCCCCCCCCOCC(O)CO (stereo not given) | – | – | – | – | – | 22.2 µM (inactive) | 18.5 µM (inactive) | 25.7 µM (inactive) | 23.4 µM (inactive)
